Source: US8771665B2 (Cocrystal Discovery, Inc., priority 2010, dated 2014)
Counter-ions that a name gives are not always drawn.

Molecular target: T1, HCV1b NS5B polymerase delta 21 (Hepatitis C virus genotype 1b, UniProt P26663)
T1 construct: purified HCV1b NS5B polymerase delta 21
Assay: RNA-Dependent RNA HCV NS5B (Polymerase) Assay and IC50 Determination
Type: biochemical
How it was run: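 Purified NS5B Δ21 (0.6 μg) with polyA:U16 template, 10 μM UTP plus α-32P UTP in Tris-HCl pH 7.5, 5 mM MgCl2, 0.5% Triton X-100, 60 min at 23°C with varied compound concentrations. Radiolabelled RNA captured on filters, quantified by phosphorimaging; IC50 from triplicate assays.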

T1 sequence (P26663 2420-2989): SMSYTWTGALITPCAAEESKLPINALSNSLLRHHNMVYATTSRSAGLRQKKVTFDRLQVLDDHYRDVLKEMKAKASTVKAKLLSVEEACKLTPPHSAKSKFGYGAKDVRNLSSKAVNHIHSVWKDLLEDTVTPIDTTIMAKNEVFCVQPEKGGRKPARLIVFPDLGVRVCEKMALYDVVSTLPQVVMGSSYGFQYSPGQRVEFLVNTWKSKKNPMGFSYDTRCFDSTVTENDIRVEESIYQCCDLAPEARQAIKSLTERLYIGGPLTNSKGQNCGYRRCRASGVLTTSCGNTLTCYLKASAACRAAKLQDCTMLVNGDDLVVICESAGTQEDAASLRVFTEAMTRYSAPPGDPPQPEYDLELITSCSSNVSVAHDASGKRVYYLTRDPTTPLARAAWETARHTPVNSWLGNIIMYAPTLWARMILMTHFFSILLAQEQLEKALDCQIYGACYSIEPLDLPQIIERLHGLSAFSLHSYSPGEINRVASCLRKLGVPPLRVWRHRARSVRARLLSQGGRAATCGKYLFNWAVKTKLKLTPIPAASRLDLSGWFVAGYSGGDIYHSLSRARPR

Structure (SMILES)	IC50 [µM]
CCOC(=O)OC(C)OC(=O)c1sc(-c2ccc(NC(=O)c3cscn3)cc2)cc1C1=C(C2CCC(C)CC2)CN(C)CC1 (centres unmarked) [Example 104, 3-[1-Methyl-5-(4-methyl-cyclohexyl)-1,2,3,6-tetrahydro-pyridin-4-yl]-5-{4-[(thiazole-4-carbonyl)-amino]-phenyl}-thiophene-2-carboxylic acid 1-ethoxycarbonyloxy-ethyl ester]	> 10
CCCC(=O)OCOC(=O)c1sc(-c2ccc(NC(=O)c3cscn3)cc2)cc1C1=C(C2CCC(C)CC2)CN(C)CC1 (centres unmarked) [Example 105, 3-[1-Methyl-5-(4-methyl-cyclohexyl)-1,2,3,6-tetrahydro-pyridin-4-yl]-5-{4-[(thiazole-4-carbonyl)-amino]-phenyl}-thiophene-2-carboxylic acid butyryloxymethyl ester]	3 to 10
CC1CCC(C2=C(c3cc(-c4ccc(NC(=O)c5cscn5)cc4)sc3C(=O)OCOC(=O)OC(C)C)CCN(C)C2)CC1 (centres unmarked) [Example 106, 3-[1-Methyl-5-(4-methyl-cyclohexyl)-1,2,3,6-tetrahydro-pyridin-4-yl]-5-{4-[(thiazole-4-carbonyl)-amino]-phenyl}-thiophene-2-carboxylic acid isopropoxycarbonyloxymethyl ester]	> 10
CCOC(=O)OCOC(=O)c1sc(-c2ccc(NC(=O)c3cscn3)cc2)cc1C1=C(C2CCC(C)CC2)CN(C)CC1 (centres unmarked) [Example 107, 3-[1-Methyl-5-(4-methyl-cyclohexyl)-1,2,3,6-tetrahydro-pyridin-4-yl]-5-{4-[(thiazole-4-carbonyl)-amino]-phenyl}-thiophene-2-carboxylic acid ethoxycarbonyloxymethyl ester]	< 3
Cc1oc(=O)oc1COC(=O)c1sc(-c2ccc(NC(=O)c3cscn3)cc2)cc1C1=C(C2CCC(C)CC2)CN(C)CC1 (centres unmarked) [Example 108, 3-[1-Methyl-5-(4-methyl-cyclohexyl)-1,2,3,6-tetrahydro-pyridin-4-yl]-5-{4-[(thiazole-4-carbonyl)-amino]-phenyl}-thiophene-2-carboxylic acid 5-methyl-2-oxo-[1,3]-dioxol-4-ylmethyl ester]	< 3
CC1CCC(C2=C(c3cc(-c4ccccc4)sc3C(=O)O)CCN(CCCc3ccccc3)C2)CC1 (centres unmarked) [Example 110, 3-[5-(4-Methyl-cyclohexyl)-1-(4-phenyl-propyl)-1,2,3,6-tetrahydro-pyridin-4-yl]-5-phenyl-thiophene-2-carboxylic acid]	> 10
CC1CCC(C2=C(c3cc(C#CC(C)(C)C)sc3C(=O)O)CNCC2)CC1 (centres unmarked) [Example 111, 5-(3,3-Dimethyl-but-1-ynyl)-3-[4-(4-methyl-cyclohexyl)-1,2,5,6-tetrahydro-pyridin-3-yl]-thiophene-2-carboxylic acid]	< 3
CC1CCC(C2=C(c3cc(C#CC(C)(C)C)sc3C(=O)O)CN(C)CC2)CC1 (centres unmarked) [Example 112, 5-(3,3-Dimethyl-but-1-ynyl)-3-[1-methyl-4-(4-methyl-cyclohexyl)-1,2,5,6-tetrahydro-pyridin-3-yl]-thiophene-2-carboxylic acid]	< 3
CC1CCC(C2=C(c3cc(C#CC(C)(C)C)sc3C(=O)O)CN(CCO)CC2)CC1 (centres unmarked) [Example 113, 5-(3,3-Dimethyl-but-1-ynyl)-3-[1-(2-hydroxy-ethyl)-4-(4-methyl-cyclohexyl)-1,2,5,6-tetrahydro-pyridin-3-yl]-thiophene-2-carboxylic acid]	< 3
CC1CCC(C2=C(c3cc(C#CC(C)(C)C)sc3C(=O)O)CN(CCCO)CC2)CC1 (centres unmarked) [Example 114, 5-(3,3-Dimethyl-but-1-ynyl)-3-[1-(3-hydroxy-propyl)-4-(4-methyl-cyclohexyl)-1,2,5,6-tetrahydro-pyridin-3-yl]-thiophene-2-carboxylic acid]	< 3
CC1CCC(C2=C(c3cc(C#CC(C)(C)C)sc3C(=O)O)CN(CC3CCOC3)CC2)CC1 (centres unmarked) [Example 117, 5-(3,3-Dimethyl-but-1-ynyl)-3-[4-(4-methyl-cyclohexyl)-1-(tetrahydro-furan-3-ylmethyl)-1,2,5,6-tetrahydro-pyridin-3-yl]-thiophene-2-carboxylic acid]	< 3
CC1CCC(C2=C(c3cc(C#CC(C)(C)C)sc3C(=O)O)CN(CCF)CC2)CC1 (centres unmarked) [Example 124, 5-(3,3-Dimethyl-but-1-ynyl)-3-[1-(2-fluoro-ethyl)-4-(4-methyl-cyclohexyl)-1,2,5,6-tetrahydro-pyridin-3-yl]-thiophene-2-carboxylic acid]	< 3
CC1CCC(C2=C(c3cc(C#CC(C)(C)C)sc3C(=O)O)CCN(Cc3ccccn3)C2)CC1 (centres unmarked) [Example 127, 5-(3,3-Dimethyl-but-1-ynyl)-3-[5-(4-methyl-cyclohexyl)-1-pyridin-2-ylmethyl-1,2,3,6-tetrahydro-pyridin-4-yl]-thiophene-2-carboxylic acid]	< 3
Cc1cc(C)n2nc(CN3CCC(c4cc(C#CC(C)(C)C)sc4C(=O)O)=C(C4CCC(C)CC4)C3)nc2n1 (centres unmarked) [Example 128, 5-(3,3-Dimethyl-but-1-ynyl)-3-[1-(5,7-dimethyl-[1,2,4]triazolo[1,5-a]pyrimidin-2-ylmethyl)-5-(4-methyl-cyclohexyl)-1,2,3,6-tetrahydro-pyridin-4-yl]-thiophene-2-carboxylic acid]	< 3
CC1CCC(C2=C(c3cc(-c4ccc(C#Cc5cscn5)cc4)sc3C(=O)O)CCN(C)C2)CC1 (centres unmarked) [Example 129, 3-[1-Methyl-5-(4-methyl-cyclohexyl)-1,2,3,6-tetrahydro-pyridin-4-yl]-5-(4-thiazol-4-ylethynyl-phenyl)-thiophene-2-carboxylic acid, hydrochloride salt]	< 3
CC1CCC(C2=C(c3cc(-c4ccc(NC(=O)c5cscn5)cc4)sc3C(=O)O)CCN(Cc3ccccn3)C2)CC1 (centres unmarked) [Example 131, 3-[5-(4-Methyl-cyclohexyl)-1-pyridin-2-ylmethyl-1,2,3,6-tetrahydro-pyridin-4-yl]-5-{4-[(thiazole-4-carbonyl)-amino]-phenyl}-thiophene-2-carboxylic acid]	< 3
CC1CCC(C2=C(c3cc(-c4ccc(-c5cc6nccc(N)n6n5)cc4)sc3C(=O)O)CCN(C)C2)CC1 (centres unmarked) [Example 132, 5-[4-(7-Amino-pyrazolo[1,5-a]pyrimidin-2-yl)-phenyl]-3-[1-methyl-5-(4-methyl-cyclohexyl)-1,2,3,6-tetrahydro-pyridin-4-yl]-thiophene-2-carboxylic acid, hydrochloride salt]	< 3
CC1CCC(C2=C(c3cc(C#CC(C)(C)C)sc3C(=O)O)CCN(Cc3ccncc3)C2)CC1 (centres unmarked) [Example 133, 5-(3,3-Dimethyl-but-1-ynyl)-3-[5-(4-methyl-cyclohexyl)-1-pyridin-4-ylmethyl-1,2,3,6-tetrahydro-pyridin-4-yl]-thiophene-2-carboxylic acid]	3 to 10
CC1CCC(C2=C(c3cc(C#CC4CC4)sc3C(=O)O)CCN(Cc3ccccn3)C2)CC1 (centres unmarked) [Example 134, 5-Cyclopropylethynyl-3-[5-(4-methyl-cyclohexyl)-1-pyridin-2-ylmethyl-1,2,3,6-tetrahydro-pyridin-4-yl]-thiophene-2-carboxylic acid]	< 3
CC1CCC(C2=C(c3cc(-c4ccc(C5=CC6N=CC=CC6O5)cc4)sc3C(=O)O)CCN(C)C2)CC1 (centres unmarked) [Example 135, 5-[4-(3a,7a-Dihydro-furo[3,2-b]pyridin-2-yl)-phenyl]-3-[1-methyl-5-(4-methyl-cyclohexyl)-1,2,3,6-tetrahydro-pyridin-4-yl]-thiophene-2-carboxylic acid]	< 3
